Data reported in ChEMBL document CHEMBL1126772, “Activated ketone based inhibitors of human renin” (J Med Chem, 1993).
Square brackets hold non-standard residues; d marks the D form. Peptide text beside a SMILES is read from it. * marks the point of attachment. ξ: configuration not given here. ξCha = NC(CC1CCCCC1)C(=O)O; Boc = CC(C)(C)OC(=O)*; CF3 = FC(F)(F)*

molecular target: T1, Cathepsin D (Bos taurus, UniProt P80209); test: In vitro inhibitory activity against bovine cathepsin D; conditions: read-out: I50
T1 sequence (P80209 whole entry): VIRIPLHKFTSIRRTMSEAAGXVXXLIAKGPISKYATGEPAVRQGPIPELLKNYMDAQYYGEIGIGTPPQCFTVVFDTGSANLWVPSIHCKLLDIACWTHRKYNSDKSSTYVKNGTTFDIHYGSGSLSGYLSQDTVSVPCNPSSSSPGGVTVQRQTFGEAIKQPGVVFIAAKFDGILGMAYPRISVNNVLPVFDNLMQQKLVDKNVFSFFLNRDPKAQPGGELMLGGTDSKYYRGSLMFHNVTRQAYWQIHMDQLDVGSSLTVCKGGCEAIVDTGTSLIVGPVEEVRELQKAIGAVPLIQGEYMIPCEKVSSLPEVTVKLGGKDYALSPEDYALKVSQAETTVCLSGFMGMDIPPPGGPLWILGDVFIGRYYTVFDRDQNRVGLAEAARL

| IC50 [µM] | SMILES |
| --- | --- |
| 1.3 | CCOC(=O)C(=O)C(CC1CCCCC1)NC(=O)[C@H](CC(C)C)NC(=O)[C@H](Cc1ccccc1)NC(=O)OC(C)(C)C (stereo partly drawn) |

molecular target: Pepsin A (Sus scrofa, UniProt P00791); test: In vitro inhibitory activity against aspartic proteinases pepsin from porcine; conditions: read-out: I50
Sequence (P00791 whole entry): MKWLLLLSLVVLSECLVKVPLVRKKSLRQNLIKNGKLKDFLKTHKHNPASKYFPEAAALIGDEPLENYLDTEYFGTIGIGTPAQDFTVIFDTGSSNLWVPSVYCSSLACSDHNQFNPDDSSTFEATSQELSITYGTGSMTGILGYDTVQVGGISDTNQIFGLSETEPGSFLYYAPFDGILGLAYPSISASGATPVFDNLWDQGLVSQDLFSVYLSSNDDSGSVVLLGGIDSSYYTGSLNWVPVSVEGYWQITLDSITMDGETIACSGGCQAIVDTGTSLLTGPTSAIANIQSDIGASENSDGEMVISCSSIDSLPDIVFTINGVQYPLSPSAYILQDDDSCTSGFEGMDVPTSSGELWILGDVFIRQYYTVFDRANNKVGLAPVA

| IC50 [µM] | SMILES |
| --- | --- |
| 2.7 | CCOC(=O)C(=O)C(CC1CCCCC1)NC(=O)[C@H](CC(C)C)NC(=O)[C@H](Cc1ccccc1)NC(=O)OC(C)(C)C (stereo partly drawn) |

molecular target: T2, Renin (Homo sapiens, UniProt P00797); test: In vitro inhibitory potency against human kidney renin.; type: tissue-based; conditions: read-out: I50
T2 sequence (P00797 whole entry): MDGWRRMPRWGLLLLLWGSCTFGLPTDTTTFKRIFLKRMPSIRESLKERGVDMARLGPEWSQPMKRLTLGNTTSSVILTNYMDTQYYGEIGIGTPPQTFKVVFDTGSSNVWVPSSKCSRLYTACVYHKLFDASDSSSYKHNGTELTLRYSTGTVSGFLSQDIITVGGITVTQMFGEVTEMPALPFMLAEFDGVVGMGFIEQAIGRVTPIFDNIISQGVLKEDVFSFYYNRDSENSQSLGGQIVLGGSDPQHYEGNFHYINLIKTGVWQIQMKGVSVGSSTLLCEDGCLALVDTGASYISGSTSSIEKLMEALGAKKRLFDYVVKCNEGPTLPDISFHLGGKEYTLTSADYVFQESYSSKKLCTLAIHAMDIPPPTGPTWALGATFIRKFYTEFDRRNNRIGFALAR

| IC50 [µM] | SMILES |
| --- | --- |
| 0.052 | CCCC(=O)C(=O)[C@H](CC1CCCCC1)NC(=O)[C@H](CC(C)C)NC(=O)[C@H](Cc1ccccc1)NC(=O)OC(C)(C)C |
| 64 | CC(C)C[C@H](NC(=O)[C@H](Cc1ccccc1)NC(=O)OC(C)(C)C)C(=O)NC(CC1CCCCC1)C(=O)C(=O)O (stereo partly drawn) |
| 0.014 | CCCC(=O)[C@H](O)[C@H](CC1CCCCC1)NC(=O)[C@H](CC(C)C)NC(=O)[C@H](Cc1ccccc1)NC(=O)C1CCCC1 |
| 0.028 | CCCC(=O)C(=O)[C@H](CC1CCCCC1)NC(=O)[C@H](CC(C)C)NC(=O)[C@H](Cc1ccccc1)NC(=O)C1CCCC1 |
| 0.11 | CCOC(=O)[C@@H](O)[C@H](CC1CCCCC1)NC(=O)[C@H](CC(C)C)NC(=O)[C@H](Cc1ccccc1)NC(=O)OC(C)(C)C |
| 4 | CC(C)C[C@H](NC(=O)[C@H](Cc1ccccc1)NC(=O)OC(C)(C)C)C(=O)NC(CC1CCCCC1)C(O)C(F)(F)F (stereo partly drawn) |
| 420 | CCCC(=O)[C@H](O)[C@H](CC1CCCCC1)NC(=O)[C@H](Cc1c[nH]cn1)NC(=O)OC(C)(C)C |
| 0.0047 | CCOC(=O)[C@H](O)[C@H](CC1CCCCC1)NC(=O)[C@H](CC(C)C)NC(=O)[C@@H](CC(=O)N1CCOCC1)Cc1ccccc1 |
| 0.023 | CCCC(=O)[C@H](O)[C@H](CC1CCCCC1)NC(=O)[C@H](CC(C)C)NC(=O)[C@H](Cc1ccccc1)NC(=O)OC(C)(C)C |
| 0.25 | CC(C)C[C@H](NC(=O)[C@H](Cc1ccccc1)NC(=O)OC(C)(C)C)C(=O)NC(CC1CCCCC1)C(=O)C(F)(F)F (stereo partly drawn) (Boc-Phe-Leu-[ξCha]-CF3) |
| 0.015 | CCOC(=O)C(=O)C(CC1CCCCC1)NC(=O)[C@H](CC(C)C)NC(=O)[C@H](Cc1ccccc1)NC(=O)OC(C)(C)C (stereo partly drawn) |
| 0.0053 | CCOC(=O)[C@H](O)[C@H](CC1CCCCC1)NC(=O)[C@H](CC(C)C)NC(=O)[C@H](Cc1ccccc1)NC(=O)OC(C)(C)C |
| 0.0041 | CCOC(=O)C(=O)[C@H](CC1CCCCC1)NC(=O)[C@H](CC(C)C)NC(=O)[C@@H](CC(=O)N1CCOCC1)Cc1ccccc1 |
| 3.2 | CC(C)C[C@H](NC(=O)[C@H](Cc1ccccc1)NC(=O)OC(C)(C)C)C(=O)N[C@@H](CC1CCCCC1)C(C)O (stereo partly drawn) |
| 52 | CCOC(=O)C(=O)C(CC1CCCCC1)NC(=O)[C@H](CC(C)C)NC(=O)OCc1ccccc1 (stereo partly drawn) |
| 2.2 | CCCC1([C@H](O)[C@H](CC2CCCCC2)NC(=O)[C@H](CC(C)C)NC(=O)[C@H](Cc2ccccc2)NC(=O)OC(C)(C)C)SCCCS1 |
